Data set [1] relates to HDACs (HeLa cell nuclear extracts). Kind of data set: HDAC enzymatic activity, Biomol Color de Lys system. In kind it is biochemical. On the procedure:
(e) An In Vitro Assay which Determines the Ability of a Test Compound to Inhibit HDAC Enzymatic Activity.
HDAC inhibitory activity was assessed using the Biomol Color de Lys system (AK-500, Biomol, Plymouth Meeting, Pa.). Briefly, HeLa cell nuclear extracts were used as a source of HDACs. Different concentrations of test compounds were serially diluted in dimethylsulphoxide (DMSO) and added to HeLa cell nuclear extracts in the presence of a colorimetric artificial substrate. Final assay condition contained 50 mM Tris/Cl, pH 8.0, 137 mM NaCl, 2.7 mM KCl and 1 mM MgCl2. Reactions were carried in room temperature (25° C.) for 1 hour before addition of developer for termination. Relative enzyme activity was measured in the WALLAC Victor II 1420 microplate reader as floorescence intensity (excitation: 350-380 nm; emission: 440-460 nm). Data were analyzed using GraphPad Prism (v4.0a) with a sigmoidal dose response curve fitting for IC50 calculation.

This passage reports IC50 and melting point results from patent US8906909B2 (Curis, Inc., priority 2009, dated 2014).

pIC50: −log10 of the molar value. Where only a bound is given, the exact number is not on record here.

`COc1ccc(-c2nc(N3CCOCC3)c3sc(C(C)(C)N(C)c4ncc(C(=O)NO)cn4)cc3n2)cn1` [Compound 251, N-Hydroxy-2-((2-(2-(6-methoxypyridin-3-yl)-4-morpholinothieno[3,2-d]pyrimidin-6-yl)propan-2-yl)(methyl)amino)pyrimidine-5-carboxamide] displayed a melting point of 175 to 178 °C. In addition, in data set [1], the pIC50 is greater than 7.00.

In the case of `CCNc1ccc(-c2nc(N3CCOCC3)c3sc(CN(C)c4ncc(C(=O)NO)cn4)cc3n2)cc1` [Compound 153, 2-(((2-(4-(ethylamino)phenyl)-4-morpholinothieno[3,2-d]pyrimidin-6-yl)methyl)(methyl)amino)-N-hydroxypyrimidine-5-carboxamide], the melting point fell in the range of 185 to 187 °C. In data set [1], this compound gave a negative-log IC50 (pIC50) greater than 7.00.

For the compound `CN(CCCC(=O)NO)Cc1cc2nc(-c3cccc4[nH]ncc34)nc(N3CCOCC3)c2s1` [Compound 101, 4-(((2-(1H-indazol-4-yl)-4-morpholinothieno[3,2-d]pyrimidin-6-yl)methyl)(methyl)amino)-N-hydroxybutanamide], the melting point is 115 to 118 °C. The compound also had a pIC50 in data set [1] of less than 5.00.

Compound `CN(Cc1cc2nc(-c3ccc(N)c([N+](=O)[O-])c3)nc(N3CCOCC3)c2s1)c1ncc(C(=O)NO)cn1` [Compound 278, 2-(((2-(4-Amino-3-nitrophenyl)-4-morpholinothieno[3,2-d]pyrimidin-6-yl)methyl)(methyl)amino)-N-hydroxypyrimidine-5-carboxamide] registered a melting point of 202 to 206 °C. This compound showed a negative logarithm of the IC50 (pIC50) in data set [1] greater than 7.00.

`CN(Cc1cc2nc(-c3ccc(N)c(F)c3)nc(N3CCOCC3)c2s1)c1ncc(C(=O)NO)cn1` [Compound 276, 2-(((2-(4-Amino-3-fluorophenyl)-4-morpholinothieno[3,2-d]pyrimidin-6-yl)methyl)(methyl)amino)-N-hydroxypyrimidine-5-carboxamide] returned a melting point of 203 to 206 °C. In data set [1], this compound had a pIC50 greater than 7.00.

`Nc1ccc(-c2nc(N3CCOCC3)c3sc(S(=O)(=O)Nc4ncc(C(=O)NO)cn4)cc3n2)cc1` [Compound 271, 2-[2-(4-Amino-phenyl)-4-morpholin-4-yl-thieno[3,2-d]pyrimidine-6-sulfonylamino]-pyrimidine-5-carboxylic acid hydroxyamide] yielded a melting point of 197 to 205 °C. The same compound showed a negative logarithm of the IC50 (pIC50) in data set [1] greater than 7.00.

In the case of `CS(=O)(=O)N1CCN(Cc2cc3nc(-c4cccc5[nH]ncc45)nc(N4CCN(CCCCCCC(=O)NO)CC4)c3s2)CC1` [Compound 32, 7-(4-(2-(1H-indazol-4-yl)-6-((4-(methylsulfonyl)piperazin-1-yl)methyl)thieno[3,2-d]pyrimidin-4-yl)piperazin-1-yl)-N-hydroxyheptanamide], the melting point lay in the range of 131 to 134 °C. Further, in data set [1], the negative-log IC50 (pIC50) is 6.00 to 7.00.

`CN(Cc1cc2nc(-c3ccc(O)cc3)nc(N3CCOCC3)c2s1)c1ncc(C(=O)NO)cn1` [Compound 133, N-hydroxy-2-(((2-(4-hydroxyphenyl)-4-morpholinothieno[3,2-d]pyrimidin-6-yl)methyl)(methyl)amino)pyrimidine-5-carboxamide]: the melting point was 185 to 195 °C. In addition, in data set [1], the pIC50 is greater than 7.00.

For `CS(=O)(=O)N1CCN(Cc2cc3nc(-c4cccc5[nH]ncc45)nc(N4CCN(CCCCCC(=O)NO)CC4)c3s2)CC1` [Compound 31, 6-(4-(2-(1H-indazol-4-yl)-6-((4-(methylsulfonyl)piperazin-1-yl)methyl)thieno[3,2-d]pyrimidin-4-yl)piperazin-1-yl)-N-hydroxyhexanamide], the melting point was in the range of 140 to 145 °C. This compound gave a negative logarithm of the IC50 (pIC50) in data set [1] of 6.00 to 7.00.

In turn, `O=C(NO)c1cnc(N2CCC(CNCc3cc4nc(-c5cccc6[nH]ncc56)nc(N5CCOCC5)c4s3)CC2)nc1` [Compound 15, 2-(4-(((2-(1H-indazol-4-yl)-4-morpholinothieno[3,2-d]pyrimidin-6-yl)methylamino)methyl)piperidin-1-yl)-N-hydroxypyrimidine-5-carboxamide] showed a melting point of 170 to 172 °C. In data set [1], this compound had a pIC50 greater than 7.00.

In the case of `CS(=O)(=O)N1CCN(Cc2cc3nc(-c4cccc5nn(CCCCCC(=O)NO)cc45)nc(N4CCOCC4)c3s2)CC1` [Compound 8, N-hydroxy-6-(4-(6-((4-(methylsulfonyl)piperazin-1-yl)methyl)-4-morpholinothieno[3,2-d]pyrimidin-2-yl)-2H-indazol-2-yl)hexanamide], the melting point was in the range of 124 to 125 °C. Further, the negative-log IC50 (pIC50) in data set [1] was greater than 7.00.

`O=C(CCCNCc1cc2nc(-c3cccc4[nH]ncc34)nc(N3CCOCC3)c2s1)NO` [Compound 41, 4-((2-(1H-indazol-4-yl)-4-morpholinothieno[3,2-d]pyrimidin-6-yl)methylamino)-N-hydroxybutanamide] yielded a melting point of 149 to 152 °C. The same compound gave a pIC50 in data set [1] greater than 7.00.

`CCCCN(Cc1cc2nc(-c3cccc4[nH]ncc34)nc(N3CCOCC3)c2s1)c1ncc(C(=O)NO)cn1` [Compound 85, 2-(((2-(1H-indazol-4-yl)-4-morpholinothieno[3,2-d]pyrimidin-6-yl)methyl)(butyl)amino)-N-hydroxypyrimidine-5-carboxamide]: the melting point is 234 to 236 °C. Besides, the negative-log IC50 (pIC50) in data set [1] was greater than 7.00.

For the compound `CN(Cc1cc2nc(-c3ccc4[nH]c(=O)[nH]c4c3)nc(N3CCOCC3)c2s1)c1ncc(C(=O)NO)cn1` [Compound 186, N-hydroxy-2-(methyl((4-morpholino-2-(2-oxo-2,3-dihydro-1H-benzo[d]imidazol-5-yl)thieno[3,2-d]pyrimidin-6-yl)methyl)amino)pyrimidine-5-carboxamide], the melting point is 272 to 275 °C. Further, the negative-log IC50 (pIC50) in data set [1] was greater than 7.00.

As for `O=C(CCCCCCNCc1cc2nc(-c3cccc4[nH]ncc34)nc(N3CCOCC3)c2s1)NO` [Compound 44, 7-((2-(1H-indazol-4-yl)-4-morpholinothieno[3,2-d]pyrimidin-6-yl)methylamino)-N-hydroxyheptanamide], the melting point is 188 to 190 °C. The compound further showed a pIC50 in data set [1] of 6.00 to 7.00.

Consider `COc1cccc(-c2nc(N3CCOCC3)c3sc(CN(C)c4ncc(C(=O)NO)cn4)cc3n2)c1` [Compound 130, N-hydroxy-2-(((2-(3-methoxyphenyl)-4-morpholinothieno[3,2-d]pyrimidin-6-yl)methyl)(methyl)amino)pyrimidine-5-carboxamide], for which the melting point was 179 to 181 °C. Further, in data set [1], the pIC50 is greater than 7.00.

Take `CN(Cc1cc2nc(-c3cn[nH]c3)nc(N3CCOCC3)c2s1)c1ncc(C(=O)NO)cn1` [Compound 196, N-hydroxy-2-(methyl((4-morpholino-2-(1H-pyrazol-4-yl)thieno[3,2-d]pyrimidin-6-yl)methyl)amino)pyrimidine-5-carboxamide]: the melting point lay in the range of 214 to 217 °C. The compound further gave a negative logarithm of the IC50 (pIC50) in data set [1] greater than 7.00.

`CC(=O)Nc1ccc(-c2nc(N3CCOCC3)c3sc(CN(C)c4ncc(C(=O)NO)cn4)cc3n2)cn1` [Compound 112, 2-(((2-(6-acetamidopyridin-3-yl)-4-morpholinothieno[3,2-d]pyrimidin-6-yl)methyl)(methyl)amino)-N-hydroxypyrimidine-5-carboxamide] returned a melting point of 197 to 201 °C. Also, the pIC50 in data set [1] is greater than 7.00.

Regarding `COc1ccc(-c2nc(N3CCOCC3)c3sc(CN(C)c4ncc(C(=O)NO)cn4)cc3n2)cc1` [Compound 131, N-hydroxy-2-(((2-(4-methoxyphenyl)-4-morpholinothieno[3,2-d]pyrimidin-6-yl)methyl)(methyl)amino)pyrimidine-5-carboxamide], the melting point is 247 °C (dec.).

Consider `CC(=O)NCc1ccc(-c2nc(N3CCOCC3)c3sc(CN(C)c4ncc(C(=O)NO)cn4)cc3n2)cc1` [Compound 136, 2-(((2-(4-(acetamidomethyl)phenyl)-4-morpholinothieno[3,2-d]pyrimidin-6-yl)methyl)(methyl)amino)-N-hydroxypyrimidine-5-carboxamide], for which the melting point was 178 to 180 °C.

For `Nc1ccc(-c2nc(N3CCOCC3)c3sc(CN4CCN(c5ncc(C(=O)NO)cn5)CC4)cc3n2)cc1` [Compound 207], the negative-log IC50 (pIC50) in data set [1] is greater than 7.00.

`Cc1ncc(-c2nc(N3CCOCC3)c3sc(CN(C)c4ncc(C(=O)NO)cn4)cc3n2)s1` [Compound 311] had a pIC50 in data set [1] greater than 7.00.

As to `CC(C)(Nc1ncc(C(=O)NO)cn1)c1cc2nc(-c3ccc(N)cc3)nc(N3CCOCC3)c2s1` [Compound 269, 2-(2-(2-(4-Aminophenyl)-4-morpholinothieno[3,2-d]pyrimidin-6-yl)propan-2-ylamino)-N-hydroxypyrimidine-5-carboxamide], the negative logarithm of the IC50 (pIC50) in data set [1] is greater than 7.00.

Take `CC(c1cc2nc(-c3ccc(N)cc3)nc(N3CCOCC3)c2s1)N(C)c1ncc(C(=O)NO)cn1` (stereo not drawn) [Compound 214]: in data set [1], the pIC50 was greater than 7.00.

Consider `CCCc1nc2cc(/C=C/C(=O)NO)ccc2n1CCN(C)Cc1cc2nc(-c3ccc(N)cc3)nc(N3CCOCC3)c2s1` [Compound 324], for which the pIC50 in data set [1] is 6.00 to 7.00.

Compound `CN(Cc1cc2nc(-c3cccc4[nH]ncc34)nc(N3CCOCC3)c2s1)c1ccc(C(=O)NO)cc1` [Compound 79] had a pIC50 in data set [1] greater than 7.00.

Regarding `O=C(CCCCN1CCN(Cc2cc3nc(-c4cccc5[nH]ncc45)nc(N4CCOCC4)c3s2)CC1)NO` [Compound 11, 5-(4-((2-(1H-indazol-4-yl)-4-morpholinothieno[3,2-d]pyrimidin-6-yl)methyl)piperazin-1-yl)-N-hydroxypentanamide], the melting point is 125 to 127 °C.

For orientation: pIC50 means the IC50 on a negative log10 scale, so that one unit is a factor of ten. A lower pIC50 goes with a high IC50. Broadly, the melting point is the temperature of the solid-liquid transition.
